Read-outs that look alike come from different tables or passages of the source.
Legend:
PGE2 = experiment: Inhibition of prostaglandin synthesis (PGE2) in LPS-stimulated macrophage cell cultures; type: cell-based; settings: LPS-stimulated macrophages
Text: (§1) Evaluation of the therapeutic effects of the novel PRS-211 compounds has now been carried out in a series of experimental systems to support the utility of these drugs as neuroprotectants, anti-inflammatory agents and anti-oxidative agents. These effects have been evaluated both in vitro and in vivo, and have been corroborated utilizing the following systems: • (a) Binding to the NMDA receptor linked channel: Non competitive antagonists of NMDA, the primary example of which is the compound MK-801, bind to a site within the NMDA receptor channel thus preventing the activation of the receptor-channel complex and the consequent neurotoxicity. The ability of various compounds to compete with the binding of tritium labeled MK-801 to brain membranes is considered a measure of their potency as NMDA non-competitive antagonists. • (b) Inhibition of prostaglandin production: The inhibitory effect of the new derivatives of Dexanabinol on prostaglandin synthesis is evaluated in macrophage cell cultures following LPS exposure to induce the inflammatory response. These assays are an indication of the anti-inflammatory activity of the individual analogs. • (c) Inhibition of Tumor Necrosis Factor Alpha: Specific aspects of the inflammatory response cascade are mediated by the cytokine TNFα. Inhibition of TNFα production and/or inhibition of TNFα release by the new analogs are assayed in macrophage cell cultures activated with LPS. This serves as another indication of the general anti-inflammatory potential of the novel compounds. • (d) Nitric Oxide Assay: As one aspect of the anti-oxidative potential of the novel analogs they were tested for their ability to inhibit the enzyme nitric oxide synthase (NOS). This assay can also serve as another indication of the anti-inflammatory cascade, as well as the anti-oxidative mechanisms. • (e) Ear Edema model: The anti-inflammatory activity of the new analogs is screened using an ear edema model in mice. This test system utilizes Croton oil or Arachidonic acid as inflammation inducers. The ability of the test compounds to prevent or diminish the inflammatory response to these stimulants is indicative of their systemic anti-inflammatory capability. • (f) Improved clinical outcome after closed head injury in rats: Severe head injury is associated with high mortality and severe neurological impairment. Animals subjected to head trauma in a controlled fashion serve as models in which to test drugs of therapeutic potential. Test compounds can be evaluated both for improved clinical outcome and for reduction of edema induced by closed head injury. The ability of compounds to reduce the severity of neurological symptoms and to reduce brain edema is considered a measure of their potency in reducing brain damage. • (g) Transient Middle cerebral artery occlusion (MCAo): The middle cerebral artery is the cerebral blood vessel most susceptible to stroke in humans. In animals, coagulation, permanent ligation or permanent placement of an occluding thread in the artery produces a permanent focal stroke affecting the MCA territory. Transient ligation or occlusion results in transient focal stroke. Both transient and permanent focal strokes result in varying degrees of edema and infarction in the affected brain regions. The ability of compounds to reduce the volumes of edema and infarction is considered a measure of their potential as anti-stroke treatment. • (h) Optic Nerve Crush: Application of mechanical pressure to the rat optical nerve results in crush injury of the axons, which is accompanied by immediate changes in oxidative metabolism and delayed axonal death and blindness. […]

transient MCAo in rats = experiment: Transient MCAo evaluated by the staircase test; type: in vivo; settings: for reduction of infarct volume compared to vehicle: not statistically different
Method: The materials for this procedure are identical to those from Physiological Example 5, except for the different concentrations of PRS-211,095. The procedural differences are as follows: • Male Sprague Dawley rats, 230-270 gr (Harlan, Israel) were used. The following compounds and their respective concentrations were tested: • Dexanabinol and analogs PRS-211,095 and PRS-211,220 in PEG ethanol cosolvent 50 mg/ml. Dexanabinol, the analogs and their vehicle were diluted in Intralipid® 20% (Pharmacia) prior to drug administration.
The procedure is essentially as described in Montoya et al. (Montoya, Campbell-Hope, Pemberton and Dunnet, J. Neurosci. Meth. 36:219-228, 1991) Animals were kept under mild food deprivation for 3-5 days, receiving 15-gr. food once a day (between 16:00 and 17:00) and free access to water. Animals were trained prior to the test for 3-5 days according to the protocol of Sharkey et. al. (Sharkey, Crawford, Butcher and Martson, Stroke 27:2282-2286, 1996).
In brief, the staircase box contains two rows of seven stairs in each. Two 45 mg food pellets were placed on each step. Animals were placed in the box for 15 minutes sessions. At the end of the session the number of eaten (grasped) and displaced pellets was counted and recorded. Animals were tested twice a day, 4 hours apart. The first session was performed between 8-9 AM and second between 12-13 PM. The animals were trained until they grasped (ate) at least 8 pellets from each set of stairs for two consecutive sessions. Up to one week after the end of the successful training session the animals underwent transient MCAo. Transient MCAo was performed in essentially the same manner as described in Physiological example 5 with the following modification at step i: • Two minutes prior to thread removal rats were re-anesthetized and administered IV with Dexanabinol 5mg/kg, analogs PRS-211,220 or PRS-211,095 at 0.5, 2.5, 5 or 10 mg/kg or vehicle 5 ml/kg. One additional group was sham-treated.
Animals were allowed to recover from the surgery for five days. The mild food deprivation was re-employed during the days following the ischemic insult. They were tested in the staircase box using the above method for 9-12 days. Animals were weighed twice a week during this period.
At the end of the evaluation period, animals were euthanized with pentobarbitone 100 mg/kg IP. The animals were perfused through the heart with heparinized 4% formaldehyde solution in PBS (pH 7.4). Brains were then removed, and kept in the same solution for at least 24h. Then the brains - from the rostral side of the cortex to the cerebellum- were sunk in 30% sucrose in PBS, cryosectioned (20 µm), dried and stained with thionin for histological evaluation of the brain infarct volume. Eight sections at the levels of: 3.3;+2.8;+1.8; +0.8; -0.4;-1.4; -2.2; and -3.4 from Bregma were measured (Swanson, Rat Brain Atlas, 1992). Sections were captured by a CCD camera (V-tech MP-470) and image analyzed (Scion image 1.62A). Infarct size was determined from the series of the 8 sections by either calculation of the infarct volume (mm3) by summing the series of mean lesion areas of two adjacent sections multiplied by the distance between them or calculation of the mean infarct size as percentage of the contralateral hemisphere size; calculation of the mean of the surviving ipsilateral side as percentage of the contralateral hemisphere size; calculation of the mean ipsilateral side ventricle as percentage of the contralateral hemisphere ventricle.
• a. The infarct size was compared using ANOVA (analysis of variance) followed by Duncan's post hoc test. • b. […]

NMDA receptor = experiment: Radioligand binding: displacement of [3H]MK-801 from rat forebrain membranes; settings: for NMDA receptor binding / affinity: MK-801 binding to membranes
Text: as §1

[1] = [3H]MK-801 binding, text to Figure 2, read-out: mean IC50
[2] = displacement of [3H]MK-801, rat forebrain membranes, read-out: NMDA BINDING IC50

With `CCCCCCC(C)(C)c1cc(O)c2c(c1)OC(C)(C)[C@H]1CC=C(CO)C[C@H]21` [211,007-000 HU-211, 1,1 dimethyl heptyl-(3 S,4S)-7-hydroxy-Δ^6-tetrahydrocannabinol, reference compound] the inhibition at 10 µM (PGE2) was 54%, the “contralateral performance, pellet consumption” value (“contralateral performance” below) (transient MCAo in rats; 0.5 mg/kg) was “No improvement” and the “reduction of infarct volume compared to vehicle” value (transient MCAo in rats; 5 mg/kg, histopathology) was 35%. The “Mortality Rate(%)” value (transient MCAo in rats; Table 4, 5 mg/kg IV) was 0%, the “No. Dead Animals” value (transient MCAo in rats; Table 4, 5 mg/kg IV) was 0 and the “Mortality Rate(%)” value (transient MCAo in rats; Table 5, 0.5 mg/kg IV) was 36%. The “No. Dead Animals” value (transient MCAo in rats; Table 5, 0.5 mg/kg IV) was 4, the “NMDA receptor binding / affinity” value (NMDA receptor) was “competes with the binding of MK-801” and the IC50 (NMDA receptor; [1]) was 10 µM. It also gave an IC50 (NMDA receptor; [2]) of 10 µM and a Ki (NMDA receptor; inhibition of [3H]MK-801 binding, read-out: inhibition constant (KI)) of 11 ± 1.3 µM.

With `CCCCCCC(C)(C)c1cc(O)c2c(c1)OC(C)(C)[C@H]1CC=C(Cn3ccnc3)C[C@H]21` (single isomer, unassigned) [211,095-000] the inhibition at 10 µM (PGE2) was 72%, the “contralateral performance” value (transient MCAo in rats; 0.5 mg/kg) was “moderately improved pellet consumption” and the “contralateral performance” value (transient MCAo in rats; 2.5 mg/kg) was “moderately improved pellet consumption”. For the same compound, the “infarct volume, protection” value (transient MCAo in rats; 2.5 mg/kg, histopathology) was “No protection”, the “contralateral performance” value (transient MCAo in rats; 5 mg/kg) was “robust improvement” and the “reduction of infarct volume compared to vehicle” value (transient MCAo in rats; 5 mg/kg, histopathology) was 35%. The “contralateral performance” value (transient MCAo in rats; 10 mg/kg) was “robust improvement”, the “Mortality Rate(%)” value (transient MCAo in rats; Table 4, 0.5 mg/kg IV) was 21% and the “No. Dead Animals” value (transient MCAo in rats; Table 4, 0.5 mg/kg IV) was 3. For the same compound, the “Mortality Rate(%)” value (transient MCAo in rats; Table 4, 2.5 mg/kg IV) was 30%, the “No. Dead Animals” value (transient MCAo in rats; Table 4, 2.5 mg/kg IV) was 3 and the “Mortality Rate(%)” value (transient MCAo in rats; Table 4, 5 mg/kg IV) was 0%. For the same compound, the “No. Dead Animals” value (transient MCAo in rats; Table 4, 5 mg/kg IV) was 0, the “Mortality Rate(%)” value (transient MCAo in rats; Table 4, 10 mg/kg IV) was 9% and the “No. Dead Animals” value (transient MCAo in rats; Table 4, 10 mg/kg IV) was 1. For the same compound, the “NMDA receptor binding / affinity” value (NMDA receptor) was “relatively high affinity”, the IC50 (NMDA receptor; [1]) was 2.5 µM and the IC50 (NMDA receptor; [2]) was 2.5 µM.

Reference: patent EP1785417A2, “Novel non-psychotropic cannabinoids” (priority 2000, dated 2001)
